Where two headings read alike, the source gives them in different places.
What was measured:
HBsAg = assay: PHH natural infection assay, HBsAg (alphalisa); type: cell-based, HBV
Description: (§1) Detailed procedures regarding primary human hepatocyte (PHH) HBV natural infection assay are described as below. One tube of frozen PHH (10 million cells) is thawed in 37° C. water bath and then transferred to 20 mL of PHH thawing medium (Sigma, InVitroGRO HT Medium, Cat. S03319) with gently mixing. The cells were then centrifuged at […] for 5 min, the supernatant was discarded and the tube was refilled with 25 mL of PHH plating medium (Sigma, InVitroGRO CP Medium, Cat. S03317). The tube was shaken very gently to re-suspend all cells, and then 50 μL of cells were transferred to each well 384-well collagen I coated plate with appropriate liquid handling equipment, e.g. Integra VIAFLO384 or Agilent Bravo. The cells were then cultured for 24 hours in a cell incubator. For HBV infection, after PHH attachment on the culture plate, the plating medium was removed and replenished with PHH culture medium containing HBV virus. The PHH culture medium was prepared with Dulbecco's Modified Eagle Medium (DMEM)/F12 (1:1 in volume ratio) containing 10% fetal bovine serum (Gibco, Cat. 10099141), 5 ng/mL human epidermal growth factor (Gibco, Cat.PHG0311L), 20 ng/mL dexamethasone (Sigma, Cat.D4902-100 mg), 250 ng/mL human recombinant insulin (Gibco, Cat.41400045) and 100 U/mL penicillin. HBV virus at 200 genome equivalent (GE) per cell with 4% PEG8000 (Sigma, Cat.P1458) containing culture medium were added to the PHH culture medium for infection. The cells were then cultured for 24 hours in cell incubator. Then the cell culture supernatant was removed. The HBV-infected PHH were cultured with sandwich culture method with PHH culture medium containing […] and 0.25 mg/mL matrix gel for 72 hours. The supernatant was then refreshed with PHH culture medium containing different concentrations of testing compounds for two times with 72-hour interval. At the end of treatment, the supernatant was collected for viral markers measurements, including HBsAg, HBeAg, HBV DNA and cytotoxicity. HBsAg and HBeAg were detected using alphalisa method using their specific antibodies. For HBV DNA detection, HBV DNA Quantitative Fluorescence Diagnostic Kit (Sansure Biotech Inc.) was used following the manufacture's protocol. Cytotoxicity was determined using Cell Counting Kit-8 (CCK8, Dojindo Molecular Technologies, Inc.).
(§2) The compounds of the present invention were tested for their capacity to inhibit HBsAg and HBeAg as described herein.

[1] = Cytotoxicity in PHH natural infection assay (Cell Counting Kit-8); type: cell-based; conditions: HBV-infected primary human hepatocytes, CCK8
Description: as §1

HBeAg = assay: PHH natural infection assay, HBeAg (alphalisa); type: cell-based, HBV
Description: as §1, §2

[2] = Hepatitis B virus, Hepatocyte, read-out: HBsAg IC50, HBV-infected primary human hepatocytes, supernatant, alphalisa
[3] = Hepatitis B virus, Hepatocyte, read-out: HBeAg IC50, HBV-infected primary human hepatocytes, supernatant, alphalisa

Compound	IC50 (HBsAg; [2]) [µM]	CC50 at 144 h [1] [µM]	IC50 (HBeAg; [3]) [µM]	IC50 (HBsAg; read-out: HBsAg IC50, HBV-infected primary human hepatocytes, supernatant, alphalisa) [µM]	IC50 (HBeAg; read-out: HBeAg IC50, HBV-infected primary human hepatocytes, supernatant, alphalisa) [µM]
Cc1cnc(-c2cc(C(=O)NC3CC4(C3)CC(c3nc5cc(Cl)ccc5o3)C4)ccn2)s1 (stereo not drawn) [Example 15, N-[6-(5-chloro-1,3-benzoxazol-2-yl)spiro[3.3]heptan-2-yl]-2-(5-methylthiazol-2-yl)pyridine-4-carboxamide]	2.25	> 10	1.47		
O=C(NC1CC2(C1)CC(c1nc3cc(Cl)ccc3o1)C2)c1ccnc(N2CCCC2=O)c1 (stereo not drawn) [Example 13, N-[6-(5-chloro-1,3-benzoxazol-2-yl)spiro[3.3]heptan-2-yl]-2-(2-oxopyrrolidin-1-yl)pyridine-4-carboxamide]	3.75	> 10	3.94		
O=C(NC1CC2(C1)CC(c1nc3cc(Cl)ccc3o1)C2)C1CCS(=O)(=O)N1 (stereo not drawn) [Example 45, N-[6-(5-chloro-1,3-benzoxazol-2-yl)spiro[3.3]heptan-2-yl]-1,1-dioxo-1,2-thiazolidine-3-carboxamide]	2.41	> 100	1.36		
O=C(NC1CC2(C1)CC(c1nc3cc(Cl)ccc3o1)C2)C1CC(=O)N(c2ccccc2)C1 (stereo not drawn) [Example 32, N-[6-(5-chloro-1,3-benzoxazol-2-yl)spiro[3.3]heptan-2-yl]-5-oxo-1-phenyl-pyrrolidine-3-carboxamide]	8.27	> 100	5.44		
O=C(NC1CC2(C1)CC(c1nc3cc(Cl)ccc3o1)C2)c1cccnc1 (stereo not drawn) [Example 2, N-[6-(5-chloro-1,3-benzoxazol-2-yl)spiro[3.3]heptan-2-yl]pyridine-3-carboxamide]	6.2	68.3	5.25		
Cc1csc(-c2cc(C(=O)NC3CC4(C3)CC(c3nc5cc(Cl)ccc5o3)C4)ccn2)n1 (stereo not drawn) [Example 14, N-[6-(5-chloro-1,3-benzoxazol-2-yl)spiro[3.3]heptan-2-yl]-2-(4-methylthiazol-2-yl)pyridine-4-carboxamide]	6.36	> 10	4.08		
O=C(NCC1CC(O)C1)NC1CC2(C1)CC(c1nc3cc(Cl)ccc3o1)C2 (stereo not drawn) [Example 64, 1-[6-(5-chloro-1,3-benzoxazol-2-yl)spiro[3.3]heptan-2-yl]-3-[(3-hydroxycyclobutyl)methyl]urea]	5.62	84.8	4.47		
CS(=O)(=O)c1cc(C(=O)NC2CC3(C2)CC(c2nc4cc(Cl)ccc4o2)C3)c(Cl)cn1 (stereo not drawn) [Example 90, 5-Chloro-N-[6-(5-chloro-1,3-benzoxazol-2-yl)spiro[3.3]heptan-2-yl]-2-methylsulfonyl-pyridine-4-carboxamide]	2.99	> 10	2.26		
O=C(NC1CC2(C1)CC(c1nc3cc(Cl)ccc3o1)C2)N1CCC2(COC2)C1 (stereo not drawn) [Example 67, N-[6-(5-chloro-1,3-benzoxazol-2-yl)spiro[3.3]heptan-2-yl]-2-oxa-7-azaspiro[3.4]octane-7-carboxamide]	3.95	> 100	3.76		
[H][C@]1(NC(=O)C2CCS(=O)(=O)CC2)C[C@@]2(C1)C[C@]([H])(c1nc3cc(Cl)ccc3o1)C2 (single isomer, unassigned) [Example 82b, (Sa)—N-[6-(5-chloro-1,3-benzoxazol-2-yl)spiro[3.3]heptan-2-yl]-1,1-dioxo-thiane-4-carboxamide]		> 100		2.04	1.47
NS(=O)(=O)c1cc(C(=O)NC2CC3(C2)CC(c2nc4cc(Cl)ccc4o2)C3)ccn1 (stereo not drawn) [Example 19, N-[6-(5-chloro-1,3-benzoxazol-2-yl)spiro[3.3]heptan-2-yl]-2-sulfamoyl-pyridine-4-carboxamide]	2.25	> 10	1.24		
Cc1ccc(S(=O)(=O)N2CC(CC(=O)NC3CC4(C3)CC(c3nc5cc(Cl)ccc5o3)C4)C2)cc1 (stereo not drawn) [Example 78, N-[6-(5-chloro-1,3-benzoxazol-2-yl)spiro[3.3]heptan-2-yl]-2-[1-(p-tolylsulfonyl)azetidin-3-yl]acetamide]	4.77	> 10	4.37		
O=C(NC1CC2(C1)CC(c1nc3cc(Cl)ccc3o1)C2)C1CN(Cc2ccccc2)S(=O)(=O)C1 (stereo not drawn) [Example 44, 2-benzyl-N-[6-(5-chloro-1,3-benzoxazol-2-yl)spiro[3.3]heptan-2-yl]-1,1-dioxo-1,2-thiazolidine-4-carboxamide]	4.44	> 10	4.6		
CS(=O)(=O)c1cncc(C(=O)NC2CC3(C2)CC(c2nc4cc(Cl)ccc4o2)C3)c1 (stereo not drawn) [Example 24, N-[6-(5-chloro-1,3-benzoxazol-2-yl)spiro[3.3]heptan-2-yl]-5-methylsulfonyl-pyridine-3-carboxamide]	5.99	> 100	3.73		
N#Cc1cc(C(=O)NC2CC3(C2)CC(c2nc4cc(Cl)ccc4o2)C3)ccn1 (stereo not drawn) [Example 18, N-[6-(5-chloro-1,3-benzoxazol-2-yl)spiro[3.3]heptan-2-yl]-2-cyano-pyridine-4-carboxamide]	4.86	> 10	4.87		
CCN(C)C(=O)NC1CC2(C1)CC(c1nc3cc(Cl)ccc3o1)C2 (stereo not drawn) [Example 62, 3-[6-(5-chloro-1,3-benzoxazol-2-yl)spiro[3.3]heptan-2-yl]-1-ethyl-1-methyl-urea]	3.23	> 100	2.12		
CC(=O)NS(=O)(=O)c1cc(C(=O)NC2CC3(C2)CC(c2nc4cc(Cl)ccc4o2)C3)ccn1 (stereo not drawn) [Example 99, 2-(Acetylsulfamoyl)-N-[6-(5-chloro-1,3-benzoxazol-2-yl)spiro[3.3]heptan-2-yl]pyridine-4-carboxamide]	2.1	> 10	1.33		
O=C(NC1CC2(C1)CC(c1nc3cc(Cl)ccc3o1)C2)c1ccnc(S(=O)(=O)CC2CC2)c1 (stereo not drawn) [Example 100, N-[6-(5-chloro-1,3-benzoxazol-2-yl)spiro[3.3]heptan-2-yl]-2-(cyclopropylmethylsulfonyl)pyridine-4-carboxamide]	0.59	> 10	0.44		
Cc1ccc(S(=O)(=O)N2CCC(CC(=O)NC3CC4(C3)CC(c3nc5cc(Cl)ccc5o3)C4)CC2)cc1 (stereo not drawn) [Example 80, N-[6-(5-chloro-1,3-benzoxazol-2-yl)spiro[3.3]heptan-2-yl]-2-[1-(p-tolylsulfonyl)-4-piperidyl]acetamide]	3.64	> 10	3.93		
CC1(C(=O)NC2CC3(C2)CC(c2nc4cc(Cl)ccc4o2)C3)CCS(=O)(=O)C1 (stereo not drawn) [Example 48, N-(6-(5-chlorobenzo[d]oxazol-2-yl)spiro[3.3]heptan-2-yl)-3-methyltetrahydrothiophene-3-carboxamide 1,1-dioxide]	2.62	> 100	1.1		
O=C(CN1CCCCS1(=O)=O)NC1CC2(C1)CC(c1nc3cc(Cl)ccc3o1)C2 (stereo not drawn) [Example 56, N-[6-(5-chloro-1,3-benzoxazol-2-yl)spiro[3.3]heptan-2-yl]-2-(1,1-dioxothiazinan-2-yl)acetamide]	2.29	> 100	2.06		
COc1cc(C(=O)NC2CC3(C2)CC(c2nc4cc(Cl)ccc4o2)C3)ccn1 (stereo not drawn) [Example 17, N-[6-(5-chloro-1,3-benzoxazol-2-yl)spiro[3.3]heptan-2-yl]-2-methoxy-pyridine-4-carboxamide]	5.45	> 10	4.48		
O=C(CC1CCCS(=O)(=O)C1)NC1CC2(C1)CC(c1nc3cc(Cl)ccc3o1)C2 (stereo not drawn) [Example 55, N-[6-(5-chloro-1,3-benzoxazol-2-yl)spiro[3.3]heptan-2-yl]-2-(1,1-dioxothian-3-yl)acetamide]	3.39	78.9	2.6		
Cc1c(Cl)cccc1N1CC(C(=O)NC2CC3(C2)CC(c2nc4cc(Cl)ccc4o2)C3)CC1=O (stereo not drawn) [Example 33, N-[6-(5-chloro-1,3-benzoxazol-2-yl)spiro[3.3]heptan-2-yl]-1-(3-chloro-2-methyl-phenyl)-5-oxo-pyrrolidine-3-carboxamide]	3.24	42.8	3.07		

From US20230286968A1, “ARYLOXAZOLO SPIRAL RING DERIVATIVES FOR THE TREATMENT AND PROPHYLAXIS OF HEPATITIS B VIRUS INFECTION” (Hoffmann-La Roche Inc., priority 2020, published 2023)
